Read-outs that look alike come from different tables or passages of the source.
Columns and labels:
huER = target: T1, huER (Homo sapiens, UniProt P03372); assay: Competition binding assay on cells, human ER; details: MCF7 cells, displacing 3H-estradiol
T1 construct: DU145 (GR), LNCaP-AR (AR), MCF7 (PR, ER), GL261 (mouse GR), and 9L (rat GR); endogenous in cells; host or cells: MCF7
T1 sequence (P03372 1-595): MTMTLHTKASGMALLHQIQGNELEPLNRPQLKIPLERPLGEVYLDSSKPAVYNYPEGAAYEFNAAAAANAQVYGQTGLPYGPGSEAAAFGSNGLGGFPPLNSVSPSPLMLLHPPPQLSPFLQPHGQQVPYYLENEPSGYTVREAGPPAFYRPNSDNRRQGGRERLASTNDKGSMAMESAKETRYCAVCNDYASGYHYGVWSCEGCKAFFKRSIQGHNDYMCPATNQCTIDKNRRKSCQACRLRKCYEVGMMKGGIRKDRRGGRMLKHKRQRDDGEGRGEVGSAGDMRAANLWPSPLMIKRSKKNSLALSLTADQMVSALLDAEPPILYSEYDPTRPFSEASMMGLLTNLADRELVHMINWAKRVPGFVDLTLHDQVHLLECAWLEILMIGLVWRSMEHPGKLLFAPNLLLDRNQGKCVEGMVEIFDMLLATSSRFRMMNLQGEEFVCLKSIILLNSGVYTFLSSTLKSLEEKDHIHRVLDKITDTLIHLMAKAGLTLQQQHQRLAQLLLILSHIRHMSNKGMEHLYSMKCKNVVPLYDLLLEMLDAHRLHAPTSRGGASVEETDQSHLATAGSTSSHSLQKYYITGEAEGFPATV

huAR = huAR (Homo sapiens, UniProt P10275); assay: Competition binding assay on cells, human AR
Procedure: The KD for subfamily 3 group C nuclear hormone receptors was determined on cells by displacing ^3H-steroidal agonists for the respective receptor. […].
The cold ligands and ^3H-steroids were co-incubated on cells in PBS at room temperature for one hour. Following incubation, the cells were washed twice with ice cold PBS and the unbound activity was retained for analysis. The cells were lysed with 1 mL of 1 M NaOH and collected. Bound and unbound fractions were counted in a liquid scintillation counter and expressed as a percentage of the total activity added per equal relative number of cells. […]. The specific binding component was plotted against the log of the competing ligand and curve fit using a non-linear regression algorithm with PRISM software.

human GR = target: T2, human GR (Homo sapiens, UniProt P04150); assay: Competition binding assay on cells, human GR
T2 construct: PC3 and DU145, two human prostate cancer models with endogenous GR expression; endogenous in cells; host or cells: DU145
T2 sequence (P04150 1-777): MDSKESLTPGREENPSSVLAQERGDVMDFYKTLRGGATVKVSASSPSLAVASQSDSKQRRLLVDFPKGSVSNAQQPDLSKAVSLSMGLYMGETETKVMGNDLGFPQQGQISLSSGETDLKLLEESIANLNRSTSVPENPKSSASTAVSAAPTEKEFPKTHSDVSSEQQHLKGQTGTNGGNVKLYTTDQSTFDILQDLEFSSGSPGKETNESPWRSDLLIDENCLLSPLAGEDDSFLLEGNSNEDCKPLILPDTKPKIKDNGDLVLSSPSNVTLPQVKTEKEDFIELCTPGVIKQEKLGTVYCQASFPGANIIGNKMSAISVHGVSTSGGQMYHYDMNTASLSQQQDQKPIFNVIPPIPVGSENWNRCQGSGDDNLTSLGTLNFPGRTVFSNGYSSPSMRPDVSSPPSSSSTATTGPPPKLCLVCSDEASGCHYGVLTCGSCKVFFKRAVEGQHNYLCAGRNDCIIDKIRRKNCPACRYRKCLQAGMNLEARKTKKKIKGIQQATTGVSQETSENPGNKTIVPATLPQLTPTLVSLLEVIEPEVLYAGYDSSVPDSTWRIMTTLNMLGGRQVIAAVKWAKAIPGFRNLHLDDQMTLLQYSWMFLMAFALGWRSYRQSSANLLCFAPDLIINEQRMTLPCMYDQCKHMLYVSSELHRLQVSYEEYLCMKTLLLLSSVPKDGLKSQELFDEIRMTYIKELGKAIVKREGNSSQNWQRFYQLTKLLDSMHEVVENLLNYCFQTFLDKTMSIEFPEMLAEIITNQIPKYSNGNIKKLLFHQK
Procedure: The KD for subfamily 3 group C nuclear hormone receptors was determined on cells by displacing ^3H-steroidal agonists for the respective receptor.
The cold ligands and ^3H-steroids were co-incubated on cells in PBS at room temperature for one hour. Following incubation, the cells were washed twice with ice cold PBS and the unbound activity was retained for analysis. The cells were lysed with 1 mL of 1 M NaOH and collected. Bound and unbound fractions were counted in a liquid scintillation counter and expressed as a percentage of the total activity added per equal relative number of cells. […] The specific binding component was plotted against the log of the competing ligand and curve fit using a non-linear regression algorithm with PRISM software.

[1] = DU145 cells, displacing 3H-dexamethasone, read-out: KD huGR

Sequence of huAR (P10275 whole entry): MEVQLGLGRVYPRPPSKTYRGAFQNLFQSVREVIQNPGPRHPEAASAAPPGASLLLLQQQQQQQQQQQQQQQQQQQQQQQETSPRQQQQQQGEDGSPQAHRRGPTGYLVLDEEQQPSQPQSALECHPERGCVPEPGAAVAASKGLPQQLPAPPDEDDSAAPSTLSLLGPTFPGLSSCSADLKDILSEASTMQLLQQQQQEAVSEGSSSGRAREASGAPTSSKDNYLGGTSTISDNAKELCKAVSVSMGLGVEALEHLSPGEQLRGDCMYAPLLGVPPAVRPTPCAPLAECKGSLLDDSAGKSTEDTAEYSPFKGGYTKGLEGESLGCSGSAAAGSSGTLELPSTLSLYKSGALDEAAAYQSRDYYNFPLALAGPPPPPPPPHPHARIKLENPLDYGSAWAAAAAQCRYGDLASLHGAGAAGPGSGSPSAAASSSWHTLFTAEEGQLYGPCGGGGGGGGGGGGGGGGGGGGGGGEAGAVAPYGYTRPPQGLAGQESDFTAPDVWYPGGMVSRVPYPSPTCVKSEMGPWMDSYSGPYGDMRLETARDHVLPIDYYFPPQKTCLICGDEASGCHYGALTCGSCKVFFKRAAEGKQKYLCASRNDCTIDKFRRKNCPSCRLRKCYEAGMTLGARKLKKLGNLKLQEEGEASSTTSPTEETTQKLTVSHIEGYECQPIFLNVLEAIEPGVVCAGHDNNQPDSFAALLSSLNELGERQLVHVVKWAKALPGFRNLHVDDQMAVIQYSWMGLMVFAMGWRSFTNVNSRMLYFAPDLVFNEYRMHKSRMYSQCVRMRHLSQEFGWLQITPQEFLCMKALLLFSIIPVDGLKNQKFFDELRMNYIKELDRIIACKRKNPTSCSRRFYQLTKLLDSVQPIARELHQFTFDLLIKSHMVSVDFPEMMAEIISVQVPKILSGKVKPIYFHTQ

Structure (SMILES) | Kd (huER) [nM] | Kd (huAR) [nM] | Kd (human GR; [1]) [nM] | Kd (human GR; Supplementary Table 1, read-out: KD for human GR) [nM]
C[C@]12C=CC(=O)C=C1CCC1C2[C@@H](O)C[C@@]2(C)C1CC[C@]2(O)C(=O)COCCCF (stereo partly shown) [GR01] | 978 | 1460 | 3.86 | 3.8
C[C@]12C=CC(=O)C=C1CCC1C2[C@@H](O)C[C@@]2(C)C1CC[C@]2(O)C(=O)CNC(=O)c1ccc(F)cc1 (stereo partly shown) [GR02] | 20700 | 1260 | 15.9 | 

From paper PMC5945515, “Measuring glucocorticoid receptor expression in vivo with PET” (Oncotarget, 2018)
